Assay results reported in ChEMBL document CHEMBL1131693, “Synthesis and methemoglobin toxicity of the amides of 6/7 mono or disubstituted quinolone” (1999).

Experiments:
[1] = species: Canis familiaris; experiment: In vitro activity on methemoglobin formation at 5 mM concentration in blood from a normal Beagle dog; format: functional, Canis lupus familiaris
[2] = species: Canis lupus familiaris; experiment: In vitro activity against canine methemoglobin reductase at 33 uM; parameters: unit not given here
[3] = species: Canis familiaris; experiment: In vitro activity on methemoglobin formation at 1 mM concentration in blood from a normal Beagle dog; Nil; format: functional
[4] = species: Canis familiaris; experiment: In vitro activity on methemoglobin formation at 5 mM concentration in blood from a normal Beagle dog; Nil; format: functional; settings: Canis lupus familiaris
[5] = species: Canis familiaris; experiment: In vitro activity on methemoglobin formation at 1 mM concentration in blood from a normal Beagle dog; format: functional, Canis lupus familiaris

| SMILES | Methemoglobin [1] [%] | Activity [2] | Methemoglobin ([3]; Canis lupus familiaris) | Methemoglobin [4] | Methemoglobin [3] [%] | Methemoglobin [5] [%] |
| --- | --- | --- | --- | --- | --- | --- |
| CCN(CC)CCCC(C)NC(=O)c1cnc2ccc([N+](=O)[O-])cc2c1O (stereo unspecified) | 5.17 | 0.064 | Nil | – | – | – |
| O=C(NC1CCCCC1)c1cnc2ccc([N+](=O)[O-])cc2c1O | 6.8 | 0.064 | Nil | – | – | – |
| CCCCCCCCNC(=O)c1cnc2ccc([N+](=O)[O-])cc2c1O | 7.7 | 0.064 | Nil | – | – | – |
| CN1CCN(C(=O)c2cnc3cc(Cl)c(F)cc3c2O)CC1 | – | 0.064 | Nil | Nil | – | – |
| O=C(NC1CCCCC1)c1cnc2cc(Cl)c(F)cc2c1O | – | 0.064 | Nil | Nil | – | – |
| CCCCCCCCNC(=O)c1cnc2cc(Cl)c(F)cc2c1O | 29.3 | 0.064 | – | – | 1.7 | – |
| CCCCCCCCNC(=O)c1cnc2ccc(F)cc2c1O | 18.9 | 0.064 | Nil | – | – | – |
| CCN(CC)CCCC(C)NC(=O)c1cnc2ccc(F)cc2c1O (stereo unspecified) | 22.4 | 0.064 | – | – | – | 1.7 |
| CN1CCN(C(=O)c2cnc3ccc(F)cc3c2O)CC1 | 2 | 0.064 | Nil | – | – | – |
| O=C(NC1CCCCC1)c1cnc2ccc(F)cc2c1O | 1.5 | 0.064 | Nil | – | – | – |
| CCN(CC)CCCC(C)NC(=O)c1cnc2cc(Cl)c(F)cc2c1O (stereo unspecified) | 16.9 | 0.064 | Nil | – | – | – |
| CN1CCN(C(=O)c2cnc3ccc([N+](=O)[O-])cc3c2O)CC1 | 8.6 | 0.064 | Nil | – | – | – |
